Reference: patent US20240279218A1 (Hoffmann-La Roche Inc., priority 2016, published 2024)

How the values were obtained:
[1] = biological target: T1, h-GABA-A α5β3γ2 (Homo sapiens (Human), UniProt P18507+P31644); assay: [3H]flumazenil competition binding assay, membranes of HEK293 cells expressing human GABAA receptors; conditions: reference compounds, GABAA receptor α5β3γ2; read-out: Ki α5-human
In short: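 Displacement of [3H]flumazenil from membranes of HEK293 cells transiently expressing human α5β3γ2 receptors, in Krebs-tris buffer pH 7.5. Incubation to equilibrium, 1 h at 4° C., then filtration and scintillation counting. Ki is the mean of two determinations.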

[2] = biological target: T1, h-GABA-A α5β3γ2; assay: Two-electrode voltage clamp electrophysiology in Xenopus oocytes expressing GABAA receptors, modulation of GABA EC20 current; assay type: cell-based; conditions: reference compounds; for Efficacy (GABA) %: % modulation of GABA EC20; for Fold increase h-GABA-A α5β3γ2 oocyte: GABAA α5β3γ2 overexpressing oocytes, GABA EC20
In short: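 Values are % modulation of an EC20 GABA response, derived point by point from the ratio of compound-exposed versus control current traces (extremum taken, 100×(fold−1)). Recordings used oocytes injected with human α5, β3, γ2 mRNA, clamped at −80 mV at room temperature, at least 3 oocytes each.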

SMILES | Ki [1] | Efficacy (GABA) % [2] | Fold increase h-GABA-A α5β3γ2 oocyte [2]
Cc1onc(-c2ccc(Cl)cn2)c1COc1ccc(C(=O)NC2CCOCC2)nn1 [RE-B, 6-((3-(5-chloro-2-pyridyl)-5-methyl-isoxazol-4-yl)methoxy)-N-tetrahydropyran-4-yl-pyridazine-3-carboxamide, reference compound] | 0.4 nM | +3% | 1.03
Cc1onc(-c2ccccn2)c1COc1ccc(C(=O)NC2CCOCC2)nn1 [RO-094, reference compound] | 2.9 nM | −18% | 0.82
Cc1onc(-c2cccnc2)c1COc1ccc(C(=O)NC2CCOCC2)cn1 [RO-159, reference compound] | 28 nM | −12% | 0.88
Cc1ccc(-c2noc(C)c2COc2ccc(C(=O)NC3CCOCC3)cn2)cc1 [RO-251, reference compound] | 1 nM | −18% | 0.82
Cc1onc(-c2ccccn2)c1COc1ccc(C(=O)NC2CCOCC2)cn1 [RO-272, reference compound] | 1 nM | −32% | 0.68
Cc1onc(-c2ccc(Cl)cn2)c1COc1ccc(C(=O)NC2CCOCC2)cn1 [RO-301, reference compound] | 0.2 nM | −18% | 0.82
